In paper PMC8273128 (ACS infectious diseases, 2021):

Columns and labels:
[1] = target: T1, SmTGR WT (Schistosoma mansoni, UniProt Q962Y6); experiment: biochemical
[2] = target: SmTGR-U597C (Schistosoma mansoni, UniProt Q962Y6); experiment: X-ray crystallography fragment soaking and co-crystallization; format: binding; conditions: crystal structure of SmTGR-U597C, soaking or co-crystallization
[3] = target: T1, SmTGR WT; experiment: Steady-state competition experiments versus NADPH; format: biochemical; conditions: upon increasing compound concentration from 0 to 3 mM
[4] = target: SmTGR-E330A/D334A (Schistosoma mansoni, UniProt Q962Y6, D334A/E330A); experiment: DTNB assay on SmTGR-E330A/D334A double mutant; format: biochemical; conditions: 500 μM compound
[5] = target: T2, SmTGR-E337A (Schistosoma mansoni, UniProt Q962Y6, E337A); experiment: biochemical
T2 sequence (Q962Y6 1-598 E337A): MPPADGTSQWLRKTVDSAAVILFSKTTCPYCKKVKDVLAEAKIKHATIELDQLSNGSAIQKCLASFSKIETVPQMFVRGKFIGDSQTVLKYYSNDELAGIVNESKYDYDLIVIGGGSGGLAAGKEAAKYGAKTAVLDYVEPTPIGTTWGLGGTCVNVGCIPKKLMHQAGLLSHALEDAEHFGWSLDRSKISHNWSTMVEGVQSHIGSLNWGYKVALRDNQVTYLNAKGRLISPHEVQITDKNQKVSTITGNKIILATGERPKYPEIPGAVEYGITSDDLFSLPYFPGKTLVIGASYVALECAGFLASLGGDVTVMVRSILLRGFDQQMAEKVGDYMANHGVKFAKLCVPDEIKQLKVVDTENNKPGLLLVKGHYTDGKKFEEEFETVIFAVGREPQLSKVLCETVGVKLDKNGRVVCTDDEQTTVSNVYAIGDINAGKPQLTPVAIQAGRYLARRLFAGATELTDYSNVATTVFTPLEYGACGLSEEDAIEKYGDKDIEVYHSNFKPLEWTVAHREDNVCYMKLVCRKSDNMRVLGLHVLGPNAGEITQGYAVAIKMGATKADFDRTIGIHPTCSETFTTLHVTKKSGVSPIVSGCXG

SMILES | IC50 [1] [µM] | Binding site [2] | decrease of Vmax [3] | inhibition at 500 µM ([1]; read-out: % of inhibition at 500 μM) [%] | percentage of inhibition at 500 μM [4] [%] | IC50 [5] [µM]
COc1nc2ccccc2nc1CCC(=O)O [Compound 1, 3-(3-methoxyquinoxalin-2-yl)propanoic acid] | > 3000 | Site 1 (both insoakingand in co-crystallization experiments) |  |  |  | 
Cc1[nH]c2ccccc2c1CC(=O)O [Compound 2, 2-methylindole-3-acetic acid] | > 1000 | Site 1 | ~ 10% |  |  | 
Nc1cccc2nsnc12 [Compound 3, 4-aminopiazthiole] | ~500 | Site 2 |  | 51.4 ± 4.1 | 48.1 ± 6.2 | 
OCc1c[nH]c2ccccc12 [Compound 4, indole-3-carbinol] | 284 ± 12 | Site 2 |  |  |  | 283 ± 15
Cc1ccc2c(O)c(C(=O)O)cnc2n1 [Compound 5, 4-hydroxy-7-methyl-1,8-naphthyridine-3-carboxylic acid] |  | Site 3 |  |  |  | 
